In brackets after ≈: the same amount, converted by molar mass.
Key:
[1] = Selectivity index, ratio of ED50 for human COL1 cells to ED50 for chloroquine-resistant Plasmodium falciparum W2; format: toxicity, cell-based; details: read-out: Ratio ED50
[2] = Selectivity index, ratio of ED50 for human HT1080 cells to ED50 for chloroquine-resistant Plasmodium falciparum W2; format: toxicity, cell-based, HT-1080; details: read-out: Ratio ED50
[3] = Selectivity index, ratio of ED50 for human KB cells to ED50 for chloroquine-sensitive Plasmodium falciparum D6; format: toxicity, cell-based; details: read-out: Ratio ED50
[4] = Selectivity index, ratio of ED50 for human LNCaP cells to ED50 for chloroquine-sensitive Plasmodium falciparum D6; format: toxicity, cell-based; details: read-out: Ratio ED50
Plasmodium falciparum [5] = experiment: Antimalarial activity after 24 hrs against chloroquine-resistant Plasmodium falciparum W2 infected type A+ human erythrocytes by [3H]hypoxanthine uptake; format: functional; details: read-out: ED50 (the source's name)
[6] = Cytotoxicity against human A431 cells after 3 days by sulforhodamine B assay; format: cell-based, A-431; details: read-out: ED50
[7] = Selectivity index, ratio of ED50 for human HT1080 cells to ED50 for chloroquine-sensitive Plasmodium falciparum D6; format: toxicity, cell-based, HT-1080; details: read-out: Ratio ED50
Plasmodium falciparum [8] = experiment: Antimalarial activity after 24 hrs against chloroquine-sensitive Plasmodium falciparum D6 infected type A+ human erythrocytes by [3H]hypoxanthine uptake; format: functional; details: read-out: ED50 (the source's name)
[9] = Selectivity index, ratio of ED50 for human MEL2 cells to ED50 for chloroquine-resistant Plasmodium falciparum W2; format: toxicity, cell-based; details: read-out: Ratio ED50
in vitro [10] = details: human, A431 cells
Description: Selectivity index, ratio of ED50 for human A431 cells to ED50 for chloroquine-sensitive Plasmodium falciparum D6

[11] = Cytotoxicity against human SK-MEL-2 cells after 3 days by sulforhodamine B assay; format: cell-based; details: read-out: ED50
[12] = Cytotoxicity against human LUC1 cells after 3 days by sulforhodamine B assay; format: cell-based; details: read-out: ED50
[13] = Selectivity index, ratio of ED50 for human ZR-75-1 cells to ED50 for chloroquine-sensitive Plasmodium falciparum D6; format: toxicity, cell-based; details: read-out: Ratio ED50
[14] = Cytotoxicity against human Col1 cells after 3 days by sulforhodamine B assay; format: cell-based; details: read-out: ED50
in vitro [15] = details: human, A431 cells; remark: listed apart in the source
Description: Selectivity index, ratio of ED50 for human A431 cells to ED50 for chloroquine-resistant Plasmodium falciparum W2

[16] = Selectivity index, ratio of ED50 for human KB-V1 cells to ED50 for chloroquine-resistant Plasmodium falciparum W2; format: toxicity, cell-based; details: read-out: Ratio ED50
[17] = Selectivity index, ratio of ED50 for human LNCaP cells to ED50 for chloroquine-resistant Plasmodium falciparum W2; format: toxicity, cell-based; details: read-out: Ratio ED50
[18] = Selectivity index, ratio of ED50 for human MEL2 cells to ED50 for chloroquine-sensitive Plasmodium falciparum D6; format: toxicity, cell-based; details: read-out: Ratio ED50
[19] = Selectivity index, ratio of ED50 for human BCA1 cells to ED50 for chloroquine-sensitive Plasmodium falciparum D6; format: toxicity, cell-based; details: read-out: Ratio ED50
[20] = Cytotoxicity against human KBV1 cells after 3 days by sulforhodamine B assay; format: cell-based, KB-V1; details: read-out: ED50
[21] = Selectivity index, ratio of ED50 for human KB-V1 cells to ED50 for chloroquine-sensitive Plasmodium falciparum D6; format: toxicity, cell-based; details: read-out: Ratio ED50
[22] = Cytotoxicity against human KB cells after 3 days by sulforhodamine B assay; format: cell-based; details: read-out: ED50
[23] = Cytotoxicity against mouse P388 cells after 2 days by sulforhodamine B assay; format: cell-based; details: read-out: ED50
[24] = Selectivity index, ratio of ED50 for human KB cells to ED50 for chloroquine-resistant Plasmodium falciparum W2; format: toxicity, cell-based; details: read-out: Ratio ED50
[25] = Selectivity index, ratio of ED50 for human ZR-75-1 cells to ED50 for chloroquine-resistant Plasmodium falciparum W2; format: toxicity, cell-based; details: read-out: Ratio ED50
[26] = Cytotoxicity against human LNCAP cells after 3 days by sulforhodamine B assay; format: cell-based; details: read-out: ED50
[27] = Selectivity index, ratio of ED50 for human LUC1 cells to ED50 for chloroquine-resistant Plasmodium falciparum W2; format: toxicity, cell-based; details: read-out: Ratio ED50
[28] = Selectivity index, ratio of ED50 for human LUC1 cells to ED50 for chloroquine-sensitive Plasmodium falciparum D6; format: toxicity, cell-based; details: read-out: Ratio ED50
[29] = Selectivity index, ratio of ED50 for human BCA1 cells to ED50 for chloroquine-resistant Plasmodium falciparum W2; format: toxicity, cell-based; details: read-out: Ratio ED50
in vitro [30] = details: mouse, P388 cells
Description: Selectivity index, ratio of ED50 for mice (Mus musculus) P388 cells to ED50 for chloroquine-sensitive Plasmodium falciparum D6

in vitro [31] = details: mouse, P388 cells; remark: listed apart in the source
Description: Selectivity index, ratio of ED50 for mice (Mus musculus) P388 cells to ED50 for chloroquine-resistant Plasmodium falciparum W2

[32] = Selectivity index, ratio of ED50 for human COL1 cells to ED50 for chloroquine-sensitive Plasmodium falciparum D6; format: toxicity, cell-based; details: read-out: Ratio ED50
[33] = Cytotoxicity against human BCA1 cells after 3 days by sulforhodamine B assay; format: cell-based; details: read-out: ED50
[34] = Cytotoxicity against human HT1080 cells after 3 days by sulforhodamine B assay; format: cell-based, HT-1080; details: read-out: ED50
[35] = Cytotoxicity against human ZR-75-1 cells after 3 days by sulforhodamine B assay; format: cell-based; details: read-out: ED50

SMILES | selectivity ratio [1] | selectivity ratio [2] | selectivity ratio [3] | selectivity ratio [4] | EC50 (Plasmodium falciparum [5]) [µg/mL] | CC50 at 72 h [6] [µg/mL] | selectivity ratio [7] | EC50 (Plasmodium falciparum [8]) [µg/mL] | selectivity ratio [9] | selectivity ratio (in vitro [10]) | CC50 at 72 h [11] [µg/mL] | CC50 at 72 h [12] [µg/mL] | selectivity ratio [13] | CC50 at 72 h [14] [µg/mL] | selectivity ratio (in vitro [15]) | selectivity ratio [16] | selectivity ratio [17] | selectivity ratio [18] | selectivity ratio [19] | CC50 at 72 h [20] [µg/mL] | further results
COc1ccc2cc1Oc1ccc(cc1)C[C@H]1c3cc(c(OC)cc3CCN1C)Oc1c(OC)c(OC)cc3c1[C@@H](C2)NCC3 | 168 | 166 | 95 | 62 | 0.0453 (≈ 0.0744 µM) | 4.7 (≈ 7.72 µM) | 114 | 0.0661 (≈ 0.109 µM) | 181 | 71 | 8.2 (≈ 13.5 µM) | 9.8 (≈ 16.1 µM) | 27 | 7.6 (≈ 12.5 µM) | 104 | 62 | 91 | 124 | 67 | 2.8 (≈ 4.6 µM) | selectivity ratio [21]: 42; CC50 at 72 h [22]: 6.3 µg/mL (≈ 10.3 µM); CC50 at 48 h [23]: 4.7 µg/mL (≈ 7.72 µM); selectivity ratio [24]: 139; selectivity ratio [25]: 40; CC50 at 72 h [26]: 4.1 µg/mL (≈ 6.74 µM); selectivity ratio [27]: 216; selectivity ratio [28]: 148; selectivity ratio [29]: 97; selectivity ratio (in vitro [30]): 71; selectivity ratio (in vitro [31]): 104; selectivity ratio [32]: 115; CC50 at 72 h [33]: 4.4 µg/mL (≈ 7.23 µM); CC50 at 72 h [34]: 7.5 µg/mL (≈ 12.3 µM); CC50 at 72 h [35]: 1.8 µg/mL (≈ 2.96 µM)
COc1ccc2cc1Oc1ccc(cc1)C[C@H]1c3cc(c(OC)cc3CCN1C)Oc1c(OC)c(OC)cc3c1[C@@H](C2)N(C)CC3 | 192 | 202 | 40 | 57 | 0.0546 (≈ 0.0877 µM) | 8.4 (≈ 13.5 µM) | 67 | 0.165 (≈ 0.265 µM) | 357 | 51 | 19.5 (≈ 31.3 µM) | 10 (≈ 16.1 µM) | 30 | 10.5 (≈ 16.9 µM) | 154 | 28 | 172 | 118 | 33 | 1.5 (≈ 2.41 µM) | selectivity ratio [21]: 9; CC50 at 72 h [22]: 6.6 µg/mL (≈ 10.6 µM); CC50 at 48 h [23]: 5.6 µg/mL (≈ 8.99 µM); selectivity ratio [24]: 121; selectivity ratio [25]: 92; CC50 at 72 h [26]: 9.4 µg/mL (≈ 15.1 µM); selectivity ratio [27]: 183; selectivity ratio [28]: 61; selectivity ratio [29]: 99; selectivity ratio (in vitro [30]): 34; selectivity ratio (in vitro [31]): 103; selectivity ratio [32]: 64; CC50 at 72 h [33]: 5.4 µg/mL (≈ 8.67 µM); CC50 at 72 h [34]: 11 µg/mL (≈ 17.7 µM); CC50 at 72 h [35]: 5 µg/mL (≈ 8.03 µM)
COc1ccc2cc1Oc1ccc(cc1)C[C@H]1c3c(cc4c(c3Oc3cc5c(cc3OC)CCN(C)[C@@H]5C2)OCO4)CCN1C [CEPHARANTHINE] | 31 | 21 | 42 | 40 | 0.295 (≈ 0.486 µM) | 2.1 (≈ 3.46 µM) | 44 | 0.14 (≈ 0.231 µM) | 49 | 15 | 14.5 (≈ 23.9 µM) | 8.8 (≈ 14.5 µM) | 7 | 9 (≈ 14.8 µM) | 7 | 3 | 19 | 103 | 34 | 0.9 (≈ 1.48 µM) | selectivity ratio [21]: 6; CC50 at 72 h [22]: 5.9 µg/mL (≈ 9.72 µM); CC50 at 48 h [23]: 0.3 µg/mL (≈ 0.494 µM); selectivity ratio [24]: 20; selectivity ratio [25]: 3; CC50 at 72 h [26]: 5.6 µg/mL (≈ 9.23 µM); selectivity ratio [27]: 25; selectivity ratio [28]: 52; selectivity ratio [29]: 16; selectivity ratio (in vitro [30]): 2; selectivity ratio (in vitro [31]): 1; selectivity ratio [32]: 64; CC50 at 72 h [33]: 4.7 µg/mL (≈ 7.75 µM); CC50 at 72 h [34]: 6.1 µg/mL (≈ 10.1 µM); CC50 at 72 h [35]: 1 µg/mL (≈ 1.65 µM)
COc1ccc2cc1Oc1ccc(cc1)C[C@H]1c3c(cc4c(c3Oc3cc5c(cc3OC)CCN[C@@H]5C2)OCO4)CCN1C | 24 | 15 | 84 | 64 | 0.129 (≈ 0.218 µM) | 1.8 (≈ 3.04 µM) | 41 | 0.0466 (≈ 0.0786 µM) | 81 | 39 | 10.5 (≈ 17.7 µM) | 2 (≈ 3.37 µM) | 19 | 3.1 (≈ 5.23 µM) | 14 | 11 | 23 | 225 | 36 | 1.4 (≈ 2.36 µM) | selectivity ratio [21]: 30; CC50 at 72 h [22]: 3.9 µg/mL (≈ 6.58 µM); CC50 at 48 h [23]: 0.1 µg/mL (≈ 0.169 µM); selectivity ratio [24]: 30; selectivity ratio [25]: 7; CC50 at 72 h [26]: 3 µg/mL (≈ 5.06 µM); selectivity ratio [27]: 16; selectivity ratio [28]: 43; selectivity ratio [29]: 13; selectivity ratio (in vitro [30]): 2; selectivity ratio (in vitro [31]): 1; selectivity ratio [32]: 67; CC50 at 72 h [33]: 1.7 µg/mL (≈ 2.87 µM); CC50 at 72 h [34]: 1.9 µg/mL (≈ 3.21 µM); CC50 at 72 h [35]: 0.9 µg/mL (≈ 1.52 µM)

Source: ChEMBL document CHEMBL1147331, “Cytotoxic and antimalarial bisbenzylisoquinoline alkaloids from Stephania erecta” (J Nat Prod, 1993)
